Experimental data taken from ChEMBL document CHEMBL4831516, “Development of Membrane-Active Honokiol/Magnolol Amphiphiles as Potent Antibacterial Agents against Methicillin-Resistant Staphylococcus aureus (MRSA)” (J Med Chem, 2021).
Converted amounts (≈) assume the structure as drawn.

How the values were obtained:
[1] = test system: Streptococcus mutans; assay: Antibacterial activity against Streptococcus mutans; type: functional
[2] = test system: Staphylococcus aureus; assay: Antibacterial activity against methicillin-resistant Staphylococcus aureus clinical isolate M-11 assessed as inhibition of visible growth incubated for 16 to 18 hrs by CLSI method; type: functional; conditions: time 16-18 hrs, read-out: MIC100
[3] = test system: Enterococcus faecalis; assay: Antibacterial activity against Enterococcus faecalis ATCC29212 assessed as inhibition of visible growth incubated for 16 to 18 hrs by CLSI method; type: functional; conditions: time 16-18 hrs, read-out: MIC100
[4] = test system: Micrococcus luteus; assay: Antibacterial activity against Micrococcus luteus assessed as inhibition of visible growth incubated for 16 to 18 hrs by CLSI method; type: functional; conditions: time 16-18 hrs, read-out: MIC100
[5] = test system: Salmonella enterica; assay: Antibacterial activity against Salmonella enterica 349812 assessed as inhibition of visible growth incubated for 16 to 18 hrs by CLSI method; type: functional; conditions: time 16-18 hrs, read-out: MIC100
[6] = test system: Bacillus subtilis; assay: Antibacterial activity against Bacillus subtilis assessed as inhibition of visible growth incubated for 16 to 18 hrs by CLSI method; type: functional; conditions: time 16-18 hrs, read-out: MIC100
[7] = Hemolytic activity in sheep RBC assessed as hemolysis incubated for 1 hr; type: ADME, cell-based, Ovis aries, Erythrocyte; conditions: sheep red blood cells (erythrocytes)
[8] = test system: Salmonella enterica; assay: Antibacterial activity against Salmonella enterica 8389 assessed as inhibition of visible growth incubated for 16 to 18 hrs by CLSI method; type: functional; conditions: time 16-18 hrs, read-out: MIC100
[9] = test system: Staphylococcus aureus; assay: Antibacterial activity against methicillin-resistant Staphylococcus aureus clinical isolate M-18 assessed as inhibition of visible growth incubated for 16 to 18 hrs by CLSI method; type: functional; conditions: time 16-18 hrs, read-out: MIC100
[10] = test system: Staphylococcus aureus; assay: Antibacterial activity against methicillin-resistant Staphylococcus aureus clinical isolate M-12 assessed as inhibition of visible growth incubated for 16 to 18 hrs by CLSI method; type: functional; conditions: time 16-18 hrs, read-out: MIC100
[11] = test system: Staphylococcus aureus; assay: Antibacterial activity against methicillin-resistant Staphylococcus aureus clinical isolate M-19 assessed as inhibition of visible growth incubated for 16 to 18 hrs by CLSI method; type: functional; conditions: time 16-18 hrs, read-out: MIC100
[12] = test system: Staphylococcus aureus; assay: Antibacterial activity against methicillin-resistant Staphylococcus aureus clinical isolate M-15 assessed as inhibition of visible growth incubated for 16 to 18 hrs by CLSI method; type: functional; conditions: time 16-18 hrs, read-out: MIC100
[13] = test system: Stenotrophomonas maltophilia; assay: Antibacterial activity against Stenotrophomonas maltophilia assessed as inhibition of visible growth incubated for 16 to 18 hrs by CLSI method; type: functional; conditions: time 16-18 hrs, read-out: MIC100
[14] = test system: Escherichia coli; assay: Antibacterial activity against Escherichia coli ATCC25922 assessed as inhibition of visible growth incubated for 16 to 18 hrs by CLSI method; type: functional; conditions: time 16-18 hrs, read-out: MIC100
[15] = test system: Staphylococcus aureus; assay: Antibacterial activity against Staphylococcus aureus ATCC29213 assessed as inhibition of visible growth incubated for 16 to 18 hrs by CLSI method; type: functional; conditions: time 16-18 hrs, read-out: MIC100
[16] = Selectivity index, HC50 for hemolytic activity in sheep RBC to MIC for antibacterial activity against Staphylococcus aureus ATCC29213; type: toxicity; conditions: sheep red blood cells (erythrocytes), read-out: Selectivity Index
[17] = test system: Staphylococcus aureus; assay: Antibacterial activity against methicillin-resistant Staphylococcus aureus clinical isolate M-20 assessed as inhibition of visible growth incubated for 16 to 18 hrs by CLSI method; type: functional; conditions: time 16-18 hrs, read-out: MIC100
[18] = test system: Staphylococcus aureus; assay: Antibacterial activity against methicillin-resistant Staphylococcus aureus clinical isolate M-13 assessed as inhibition of visible growth incubated for 16 to 18 hrs by CLSI method; type: functional; conditions: time 16-18 hrs, read-out: MIC100
[19] = test system: Staphylococcus aureus; assay: Antibacterial activity against methicillin-resistant Staphylococcus aureus clinical isolate M-16 assessed as inhibition of visible growth incubated for 16 to 18 hrs by CLSI method; type: functional; conditions: time 16-18 hrs, read-out: MIC100
[20] = test system: Staphylococcus aureus; assay: Antibacterial activity against methicillin-resistant Staphylococcus aureus clinical isolate M-17 assessed as inhibition of visible growth incubated for 16 to 18 hrs by CLSI method; type: functional; conditions: time 16-18 hrs, read-out: MIC100
[21] = test system: Staphylococcus aureus; assay: Antibacterial activity against methicillin-resistant Staphylococcus aureus clinical isolate M-14 assessed as inhibition of visible growth incubated for 16 to 18 hrs by CLSI method; type: functional; conditions: time 16-18 hrs, read-out: MIC100

| Compound | MIC [2] [µg/mL] | MIC [3] [µg/mL] | MIC [4] [µg/mL] | MIC [5] [µg/mL] | MIC [6] [µg/mL] | HC50 at 1 h [7] [µg/mL] | MIC [8] [µg/mL] | MIC [9] [µg/mL] | MIC [10] [µg/mL] | MIC [11] [µg/mL] | MIC [12] [µg/mL] | MIC [13] [µg/mL] | MIC [14] [µg/mL] | MIC [15] [µg/mL] | selectivity ratio [16] | MIC [17] [µg/mL] | MIC [18] [µg/mL] | MIC [19] [µg/mL] | MIC [20] [µg/mL] | MIC [21] [µg/mL] | further results |
| --- | --- | --- | --- | --- | --- | --- | --- | --- | --- | --- | --- | --- | --- | --- | --- | --- | --- | --- | --- | --- | --- |
| CC(C)(C)c1ccc(CCc2ccc(C(C)(C)C)c(O)c2)cc1O |  |  |  |  |  |  |  |  |  |  |  |  |  |  |  |  |  |  |  |  | MIC [1]: 8 µg/mL (≈ 24.5 µM) |
| C=CCc1ccc(O)c(-c2cc(CC=C)ccc2OCCC[N+](C)(C)CC(=O)N(CCCC)CCCC)c1.[Br-] | 4 | 2 | 0.5 | 8 | 0.5 | 764 | 16 | 2 | 4 | 1 | 2 | 8 | 8 | 2 | 382 | 2 | 2 | 2 | 2 | 4 |  |
| C=CCc1ccc(OCC[N+](C)(C)CC(=O)NCCC)c(-c2ccc(OCC[N+](C)(C)CC(=O)NCCC)c(CC=C)c2)c1.[Br-].[Br-] | 8 | 8 | 16 | 64 | 16 | 703 | 64 | 8 | 8 | 8 | 4 | 64 | 64 | 16 | 43.9 | 8 | 8 | 4 | 4 | 8 |  |
| C=CCc1ccc(O)c(-c2cc(CC=C)ccc2OCC[N+](C)(C)CC(=O)NCCCCC)c1.[Br-] | 16 | 16 | 4 | 64 | 4 | 645 | 64 | 8 | 16 | 8 | 8 | 64 | 32 | 8 | 80.7 | 8 | 8 | 8 | 8 | 8 |  |
